The target in one assay is T1, GST-JAK2(808-1132) (Homo sapiens, UniProt O60674).
T1 construct: GST-JAK2(808-1132); purchased Invitrogen (Carlsbad, USA) #4288
The assay can be described thus: JAK2 kinase assay (Caliper mobility shift, LabChip 3000). Type of assay: biochemical. The procedure, abridged:
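Eight-point compound series (final 10–0.003 μM) tested on purchased GST-JAK2 kinase domain (808-1132). Peptide FITC-JAK3tide plus ATP reacted 60 min, 30 °C, then quenched with EDTA; turnover from charge-based separation of substrate and product.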

The target of the next assay is T2, cKit (Homo sapiens, UniProt P10721).
T2 construct: using the recombinant domains of cMet, cKit, ALK and PDGFRalpha kinases
T2 sequence (P10721 589-937 limits assumed): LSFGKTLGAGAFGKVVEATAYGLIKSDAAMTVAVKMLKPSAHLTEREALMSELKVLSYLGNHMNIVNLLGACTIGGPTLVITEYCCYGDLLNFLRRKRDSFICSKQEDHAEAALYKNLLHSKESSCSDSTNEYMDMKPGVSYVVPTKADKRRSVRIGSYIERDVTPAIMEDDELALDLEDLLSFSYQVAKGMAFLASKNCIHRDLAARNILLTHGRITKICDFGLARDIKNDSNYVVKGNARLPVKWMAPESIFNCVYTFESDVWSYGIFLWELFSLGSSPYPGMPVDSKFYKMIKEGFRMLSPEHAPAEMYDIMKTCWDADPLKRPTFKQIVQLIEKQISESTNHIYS
Nature of the assay: cKit LanthaScreen TR-FRET kinase phosphorylation assay. Type of assay: biochemical. To be noted: recombinant kinase domain. As to the method: (§1) The compounds are assayed in an antibody based kinase phosphorylation assay using the recombinant domains of cMet, cKit, ALK and PDGFRalpha kinases and a generic phospho-tyrosine peptide substrate. LanthaScreen™ is the detection of Time-Resolved Fluorescence Resonance Energy Transfer (TR-FRET) using lanthanide chelates to measure interactions between various binding partners. In a TR-FRET kinase assay, a long-lifetime lanthanide donor species is conjugated to an antibody that specifically binds to a phosphorylated product of a kinase reaction that is labeled with a suitable acceptor fluorophore. This antibody-mediated interaction brings the lanthanide donor and the acceptor into proximity such that resonance energy transfer can take place, resulting in a detectible increase in FRET. The LanthaScreen is run at ambient temperature and terminated by the addition of stop solution, followed by Tb-labeled P-20 antibody. After incubating in the dark, the plates are transferred to a fluorescence reader for counting. The effect of compound on the enzymatic activity is in all assays obtained from the linear progress curves and determined from one reading (end point measurement).
Background: In TR-FRET formats the signal depends on donor and acceptor labels being close together.

In a further assay the target is T3, cMet (Homo sapiens, UniProt P08581).
T3 construct: using the recombinant domains of cMet, cKit, ALK and PDGFRalpha kinases
T3 sequence (P08581 1078-1345 limits assumed): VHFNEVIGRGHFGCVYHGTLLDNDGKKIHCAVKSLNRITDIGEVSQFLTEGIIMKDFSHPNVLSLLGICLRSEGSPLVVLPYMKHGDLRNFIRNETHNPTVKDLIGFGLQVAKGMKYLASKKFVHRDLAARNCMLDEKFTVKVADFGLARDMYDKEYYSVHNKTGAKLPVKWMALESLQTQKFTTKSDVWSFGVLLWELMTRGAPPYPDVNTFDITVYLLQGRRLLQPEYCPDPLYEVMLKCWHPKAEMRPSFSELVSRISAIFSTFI
The assay can be described thus: cMet LanthaScreen TR-FRET kinase phosphorylation assay. Type of assay: biochemical. Conditions: recombinant kinase domain. As to the method:
as §1

For the next assay, the target named is T4, PDGFRalpha (Homo sapiens, UniProt P16234).
T4 construct: using the recombinant domains of cMet, cKit, ALK and PDGFRalpha kinases
T4 sequence (P16234 593-954 limits assumed, species assumed): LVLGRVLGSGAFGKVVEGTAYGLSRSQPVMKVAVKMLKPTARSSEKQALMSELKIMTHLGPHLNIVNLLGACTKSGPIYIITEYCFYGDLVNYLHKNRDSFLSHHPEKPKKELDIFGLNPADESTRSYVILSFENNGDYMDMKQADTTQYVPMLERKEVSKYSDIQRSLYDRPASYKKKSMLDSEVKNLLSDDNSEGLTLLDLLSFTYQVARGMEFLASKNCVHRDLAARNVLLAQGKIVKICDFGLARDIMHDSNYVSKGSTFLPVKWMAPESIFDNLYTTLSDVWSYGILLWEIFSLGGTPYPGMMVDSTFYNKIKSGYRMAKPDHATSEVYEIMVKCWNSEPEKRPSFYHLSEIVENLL
Nature of the assay: PDGFRalpha LanthaScreen TR-FRET kinase phosphorylation assay. It counts as biochemical. Conditions: recombinant kinase domain, read-out: PDGFRa/IC50. As to the method: as §1

The target of a further assay is T5, ALK (Homo sapiens, UniProt Q9UM73).
T5 construct: using the recombinant domains of cMet, cKit, ALK and PDGFRalpha kinases
T5 sequence (Q9UM73 1116-1392 limits assumed, species assumed): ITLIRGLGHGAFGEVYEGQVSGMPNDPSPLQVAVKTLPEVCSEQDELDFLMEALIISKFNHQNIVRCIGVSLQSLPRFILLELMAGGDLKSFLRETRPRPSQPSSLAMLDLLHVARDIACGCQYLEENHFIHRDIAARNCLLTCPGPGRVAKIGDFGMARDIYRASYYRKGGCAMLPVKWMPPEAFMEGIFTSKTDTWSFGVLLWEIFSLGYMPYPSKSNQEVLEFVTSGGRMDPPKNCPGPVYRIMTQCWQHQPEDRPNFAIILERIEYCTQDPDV
The assay can be described thus: ALK LanthaScreen TR-FRET kinase phosphorylation assay. Type of assay: biochemical. To be noted: recombinant kinase domain. As to the method: as §1

In assay [1] the test system is JAK2-dependent nuclear translocation of STAT5-GFP in U-2 OS osteosarcoma cells. Nature of the assay: STAT5 nuclear translocation assay (Cellomics), rhEpo stimulated U-2 OS STAT5-GFP cells. Type of assay: cell-based. To be noted: STAT5 translocation pathway. The procedure, abridged: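 U-2 OS cells stably expressing STAT5a-GFP and EpoR pre-treated with compound (final 10 μM to 0.003 μM, 0.1% DMSO) for 30 min at 37° C., then stimulated 1 h with 5 U/ml rhEpo. Nuclear-cytoplasmic GFP differential quantified by automated imaging (≥1000 cells/well, Hoechst nuclear mask). IC50 from % translocation normalized to untreated and DMSO-stimulated controls.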

The test system of assay [2] is JAK1/JAK2-dependent nuclear translocation of STAT1-GFP in HT1080 fibrosarcoma cells. Nature of the assay: STAT1 nuclear translocation assay (Cellomics), IFN-γ stimulated HT1080 STAT1-GFP cells. Type of assay: cell-based. Conditions: Homo sapiens, HT-1080, STAT1 translocation pathway. The procedure, abridged:
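IC50 derived from percent nuclear STAT1-GFP translocation, computed from nuclear minus cytoplasmic GFP intensity against untreated baseline and DMSO-stimulated control. Stable HT1080 STAT1-GFP cells received compound (0.003–10 μM, 0.1% DMSO) 30 min ahead of a 2 h 100 ng/ml IFN-γ stimulus, then fixation and Hoechst nuclear masking.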

Like-named read-outs stand apart in the source and are kept apart here. Bounds are passed on as bounds.

T1 sequence (O60674 808-1132): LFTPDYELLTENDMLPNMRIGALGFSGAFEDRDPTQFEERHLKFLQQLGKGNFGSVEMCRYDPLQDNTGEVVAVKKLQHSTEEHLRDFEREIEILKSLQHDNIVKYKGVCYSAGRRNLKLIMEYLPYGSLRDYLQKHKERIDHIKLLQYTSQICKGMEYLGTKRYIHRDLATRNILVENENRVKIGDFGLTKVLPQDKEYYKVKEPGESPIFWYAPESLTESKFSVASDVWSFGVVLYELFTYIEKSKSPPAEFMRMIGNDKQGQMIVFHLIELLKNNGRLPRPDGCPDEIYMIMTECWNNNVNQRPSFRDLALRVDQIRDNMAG

With `N#Cc1ccc(Nc2ncc3ccn(-c4ccc(C(=O)N5CCOCC5)cc4)c3n2)cn1` [Example 235, 5-{7-[4-(Morpholine-4-carbonyl)-phenyl]-7H-pyrrolo[2,3-d]pyrimidin-2-ylamino}-pyridine-2-carbonitrile], the IC50 at GST-JAK2(808-1132) is 56 nM; at GST-JAK2(808-1132) (Table 3), 56 nM; at cKit, more than 10000 nM; on cMet it was more than 10000 nM; at PDGFRalpha, more than 10000 nM; at ALK, more than 10000 nM.

For the compound `CN1CCN(c2ccc(Nc3ncc4ccn(-c5ccc(C#N)cc5)c4n3)cn2)CC1` [Example 278, 4-{2-[6-(4-Methyl-piperazin-1-yl)-pyridin-3-ylamino]-pyrrolo[2,3-d]pyrimidin-7-yl}-benzonitrile], the IC50 is 11 nM at GST-JAK2(808-1132); 11 nM at GST-JAK2(808-1132) (Table 3); 1350 nM at cKit; 1400 nM at cMet; 2650 nM at PDGFRalpha; more than 10000 nM on ALK.

Regarding `C[C@@H]1CN(Cc2c(F)cc(-n3ccc4cnc(Nc5ccc(N6CCN(C)CC6)nc5)nc43)cc2F)C[C@H](C)O1` [Example 447, {7-[4-(cis-2,6-dimethyl-morpholin-4-ylmethyl)-3,5-difluoro-phenyl]-7H-pyrrolo[2,3-d]pyrimidin-2-yl}-[6-(4-methyl-piperazin-1-yl)-pyridin-3-yl]-amine], the IC50 turned out to be 11.8 nM in assay [1] (Homo sapiens, U2OS); 9.6 nM at GST-JAK2(808-1132); 105 nM in assay [2].

Consider `CN1CCOC[C@@H]1c1ccc(Nc2ncc3ccn(-c4cc(F)c(CN5CCOCC5)c(F)c4)c3n2)cc1` [Example 509, [7-(3,5-Difluoro-4-morpholin-4-ylmethyl-phenyl)-7H-pyrrolo[2,3-d]pyrimidin-2-yl]-[4-((S)-4-methyl-morpholin-3-yl)-phenyl]-amine], for which the IC50 in assay [1] (Homo sapiens, U2OS) is 43.1 nM; at GST-JAK2(808-1132), less than 3 nM.

Take `Cc1cc(Nc2ncc3ccn(-c4cc(F)c(CN5CCOCC5)c(F)c4)c3n2)cnc1N1C[C@@H](C)N[C@@H](C)C1` [Example 510, [7-(3,5-Difluoro-4-morpholin-4-ylmethyl-phenyl)-7H-pyrrolo[2,3-d]pyrimidin-2-yl]-[6-(cis-3,5-dimethyl-piperazin-1-yl)-5-methyl-pyridin-3-yl]-amine]: the IC50 in assay [1] (Homo sapiens, U2OS) was 1 nM; at GST-JAK2(808-1132), not above 3 nM.

For the compound `Fc1cc(-n2ccc3cnc(Nc4ccc([C@H]5COCCN5)cc4)nc32)cc(F)c1CN1CCOCC1` [Example 511, [7-(3,5-Difluoro-4-morpholin-4-ylmethyl-phenyl)-7H-pyrrolo[2,3-d]pyrimidin-2-yl]-((S)-4-morpholin-3-yl-phenyl)-amine], the IC50 is 3.9 nM in assay [1] (Homo sapiens, U2OS) and not above 3 nM on GST-JAK2(808-1132).

With `Cc1cc(Nc2ncc3ccn(-c4cc(F)c(CN5CCOCC5)c(F)c4)c3n2)cnc1N1CCNCC(F)(F)C1` [Example 512, [6-(6,6-Difluoro-[1,4]diazepan-1-yl)-5-methyl-pyridin-3-yl]-[7-(3,5-difluoro-4-morpholin-4-ylmethyl-phenyl)-7H-pyrrolo[2,3-d]pyrimidin-2-yl]-amine], the IC50 in assay [1] (Homo sapiens, U2OS) was 14 nM; on GST-JAK2(808-1132) it was not above 3 nM.

`Fc1cc(-n2ccc3cnc(Nc4ccc(OCCN5CCOCC5)nc4)nc32)cc(F)c1CN1CCOCC1` [Example 513, [7-(3,5-Difluoro-4-morpholin-4-ylmethyl-phenyl)-7H-pyrrolo[2,3-d]pyrimidin-2-yl]-[6-(2-morpholin-4-yl-ethoxy)-pyridin-3-yl]-amine]: the IC50 is 116 nM in assay [1] (Homo sapiens, U2OS) and 4.6 nM on GST-JAK2(808-1132).

With `Fc1cc(-n2ccc3cnc(Nc4ccc(OC5CCOCC5)nc4)nc32)cc(F)c1CN1CCOCC1` [Example 515, [7-(3,5-Difluoro-4-morpholin-4-ylmethyl-phenyl)-7H-pyrrolo[2,3-d]pyrimidin-2-yl]-[6-(tetrahydro-pyran-4-yloxy)-pyridin-3-yl]-amine], the IC50 was 54 nM in assay [1] (Homo sapiens, U2OS) and not above 3 nM at GST-JAK2(808-1132).

With `COCCOc1ccc(Nc2ncc3ccn(-c4cc(F)c(CN5CCOCC5)c(F)c4)c3n2)cn1` [Example 516, [7-(3,5-Difluoro-4-morpholin-4-ylmethyl-phenyl)-7H-pyrrolo[2,3-d]pyrimidin-2-yl]-[6-(2-methoxy-ethoxy)-pyridin-3-yl]-amine], the IC50 in assay [1] (Homo sapiens, U2OS) is 119 nM; at GST-JAK2(808-1132) it was 6.4 nM.

Regarding `Fc1cc(-n2ccc3cnc(Nc4ccc(OCC5CCOCC5)nc4)nc32)cc(F)c1CN1CCOCC1` [Example 517, [7-(3,5-Difluoro-4-morpholin-4-ylmethyl-phenyl)-7H-pyrrolo[2,3-d]pyrimidin-2-yl]-[6-(tetrahydro-pyran-4-ylmethoxy)-pyridin-3-yl]-amine], the IC50 was 69.5 nM in assay [1] (Homo sapiens, U2OS) and not above 3 nM at GST-JAK2(808-1132).

`OCCOc1ccc(Nc2ncc3ccn(-c4cc(F)c(CN5CCOCC5)c(F)c4)c3n2)cn1` [Example 518, 2-{5-[7-(3,5-Difluoro-4-morpholin-4-ylmethyl-phenyl)-7H-pyrrolo[2,3-d]pyrimidin-2-ylamino]-pyridin-2-yloxy}-ethanol]: the IC50 in assay [1] (Homo sapiens, U2OS) is 39.5 nM; at GST-JAK2(808-1132), not above 3 nM.

Regarding `Fc1cc(-n2ccc3cnc(Nc4ccc([C@H]5COCCN5CCOCc5ccccc5)cc4)nc32)cc(F)c1CN1CCOCC1` [Example 520, {4-[(S)-4-(2-Benzyloxy-ethyl)-morpholin-3-yl]-phenyl}-[7-(3,5-difluoro-4-morpholin-4-ylmethyl-phenyl)-7H-pyrrolo[2,3-d]pyrimidin-2-yl]-amine], the IC50 amounted to 543 nM in assay [1] (Homo sapiens, U2OS) and 57 nM at GST-JAK2(808-1132).

Consider `OCCN1CCOC[C@@H]1c1ccc(Nc2ncc3ccn(-c4cc(F)c(CN5CCOCC5)c(F)c4)c3n2)cc1` [Example 521, 2-((S)-3-{4-[7-(3,5-difluoro-4-morpholin-4-ylmethyl-phenyl)-7H-pyrrolo[2,3-d]pyrimidin-2-ylamino]-phenyl}-morpholin-4-yl)-ethanol], for which the IC50 at GST-JAK2(808-1132) is not above 3 nM; on GST-JAK2(808-1132) (Table 3), less than 3 nM; at cKit, 2900 nM; at cMet it was 3500 nM; on PDGFRalpha, 2800 nM; at ALK it was more than 10000 nM.

Regarding “[6-Azetidin-3-yloxy)-pyridin-3-yl]-[7-(3,5-difluoro-4-morpholin-4-ylmethyl-phenyl)-7H-pyrrolo[2,3-d]pyrimidin-2-yl]-amine [Example 514]”, the figures for the IC50 (in assay [1]; at GST-JAK2(808-1132)) were 1320 nM and 25 nM, respectively.

Source of the values: patent US8420657B2 (Novartis AG, priority 2008, dated 2013).
